Data taken from US10206909B2, “3-(1H-pyrrolo[2,3-B]pyridin-2-yl)-1H-pyrazolo[4,3-B]pyridines and therapeutic uses thereof” (Samumed, LLC, priority 2015, dated 2019).

What was measured:
[1] = test system: primary human mesenchymal stem cells (hMSCs); test: Chondrogenesis induction in mesenchymal stem cells (nodule count); type: cell-based; details: 144 h, 6 days; for EC50: concentration required to induce 50% levels of chondrogenesis vs TGF-β3, read-out: Conc (nM) of 50% TGF-β3 activity; for Emax: relative to TGF-β3 (10 ng/mL) positive control, read-out: Max. Activity as % TGF-β3 activity
Procedure: Representative compounds were screened using primary human mesenchymal stem cells (hMSCs) to determine their ability to induce chondrogenesis (process by which cartilage is developed).
Human Mesenchymal Stem Cell Culture: Primary human mesenchymal stem cells (hMSCs) were purchased from Lonza (Walkersville, Md.) and expanded in Mesenchymal Stem Cell Growth Media (Lonza). Cells between passage 3 and 6 were used for the experiments.
Compound Screening: Each compound was dissolved in DMSO as a 10 mM stock and used to prepare compound source plates. Serial dilution (1:3, 6-point dose-response curves from 2700 nM to 10 nM) and compound transfer was performed using the ECHO 550 (Labcyte, Sunnyvale, Calif.) into 96-well clear bottom assay plates (Greiner Bio-One) with appropriate DMSO backfill for a final DMSO concentration of 0.03%. hMSCs were plated at 20,000 cells/well in 250 μL/well Incomplete Chondrogenic Induction Medium (Lonza; DMEM, dexamethasone, ascorbate, insulin-transferrin-selenium [ITS supplement], gentamycin-amphotericin [GA-1000], sodium pyruvate, proline and L-glutamine). TGF-β3 (10 ng/mL) was used as a positive control for differentiation while negative control wells were treated with 75 nL DMSO for normalization and calculating EC50 values. Cells were incubated at 37° C. and 5% CO2 for 6 days. To image chondrogenic nodules, the cells were fixed using 4% formaldehyde (Electron Microscopy Sciences), and stained with 2 μg/mL Rhodamine B (Sigma-Aldrich) and 20 μM Nile Red (Sigma-Aldrich) [Johnson K., et. al, A Stem Cell-Based Approach to Cartilage Repair, Science, (2012). 336(6082), 717-721]. The nodules imaged (4 images per well at 4× magnification) by excitation at 531 nm and emission at 625 nm and quantified using the CellInsight CX5 (Thermo Scientific). Number of nodules in each well was normalized to the average of 3 DMSO treated wells on the same plate using Excel (Microsoft Inc.). The normalized averages (fold change over DMSO) of 3 replicate wells for each compound concentration were calculated. Due to solubility limitations of some of the compounds, curve fitting was incomplete leading to inaccurate EC50 determinations.
Using TGF-β3 as a positive control, the concentration of representative compounds required to induce 50% levels of chondrogenesis is reported. In addition, the maximum activity of each compound and the respective dose that each compound reached maximum chondrogenesis activity is reported.

IL-6 (THP-1 cells) = test: IL-6 inhibition in LPS-stimulated THP-1 cells (HTRF); type: cell-based; details: Homo sapiens; for EC50: THP-1 cells, LPS 500 ng/mL, 22 hours, IL6 HTRF; for inhibition at 10 µM: given where EC50 >10 μM, THP-1, IL6, read-out: percent inhibition at 10 μM
Procedure, shortened: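 THP-1 cells, pre-cultured 24 h in 1% FBS, were preincubated 2 h with compound over a 10-point 1:3 series from 10 μM (0.1% DMSO). They were then stimulated with 500 ng/mL LPS for 22 h at 37° C. IL-6 was read by HTRF 665/620 nm ratio, and EC50 was fitted by four-parameter regression against DMSO; above 10 μM, % inhibition at 10 μM is given.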

Row | SMILES | EC50 [1] | Emax [1] | EC50 (IL-6 (THP-1 cells)) | inhibition at 10 µM (IL-6 (THP-1 cells))
1 | CN(C)Cc1cncc(-c2ccc3[nH]nc(-c4cc5c(N6CCCCC6)ccnc5[nH]4)c3n2)c1 [Compound 181, N,N-Dimethyl-1-(5-(3-(4-(piperidin-1-yl)-1H-pyrrolo[2,3-b]pyridin-2-yl)-1H-pyrazolo[4,3-b]pyridin-5-yl)pyridin-3-yl)methanamine] | 10 nM | 82% | > 10000 nM | 29.2%
2 | CN(C)CCOc1cncc(-c2ccc3[nH]nc(-c4cc5c(-c6cccnc6)ccnc5[nH]4)c3n2)c1 [Compound 563, N,N-Dimethyl-2-((5-(3-(4-(pyridin-3-yl)-1H-pyrrolo[2,3-b]pyridin-2-yl)-1H-pyrazolo[4,3-b]pyridin-5-yl)pyridin-3-yl)oxy)ethan-1-amine] | – | 22% | > 10000 nM | 20.3%
3 | c1ncc(-c2ccc3[nH]nc(-c4cc5c(N6CCCCC6)ccnc5[nH]4)c3n2)cn1 [Compound 195, 3-(4-(Piperidin-1-yl)-1H-pyrrolo[2,3-b]pyridin-2-yl)-5-(pyrimidin-5-yl)-1H-pyrazolo[4,3-b]pyridine] | 10 nM | 100% | > 10000 nM | 26%
4 | CCNCc1cncc(-c2ccc3[nH]nc(-c4cc5cccnc5[nH]4)c3n2)c1 [Compound 258, N-((5-(3-(1H-Pyrrolo[2,3-b]pyridin-2-yl)-1H-pyrazolo[4,3-b]pyridin-5-yl)pyridin-3-yl)methyl)ethanamine] | 10 nM | 80% | > 10000 nM | 4.6%
5 | c1cc(-c2ccnc3[nH]c(-c4n[nH]c5ccc(-c6cncc(OCCN7CCCC7)c6)nc45)cc23)ccn1 [Compound 578, 3-(4-(Pyridin-4-yl)-1H-pyrrolo[2,3-b]pyridin-2-yl)-5-(5-(2-(pyrrolidin-1-yl)ethoxy)pyridin-3-yl)-1H-pyrazolo[4,3-b]pyridine] | – | 40% | > 10000 nM | 27%
6 | CC(C)CC(=O)Nc1cncc(-c2ccc3[nH]nc(-c4cc5c(N6CCN(C)CC6)ccnc5[nH]4)c3n2)c1 [Compound 226, 3-Methyl-N-(5-(3-(4-(4-methylpiperazin-1-yl)-1H-pyrrolo[2,3-b]pyridin-2-yl)-1H-pyrazolo[4,3-b]pyridin-5-yl)pyridin-3-yl)butanamide] | – | 49% | 3270 nM | –
7 | CN(C)Cc1cncc(-c2ccc3[nH]nc(-c4cc5cccnc5[nH]4)c3n2)c1 [Compound 265, 1-(5-(3-(1H-Pyrrolo[2,3-b]pyridin-2-yl)-1H-pyrazolo[4,3-b]pyridin-5-yl)pyridin-3-yl)-N,N-dimethylmethanamine] | – | 37% | 653 nM | –
8 | FC1(F)CCN(Cc2cncc(-c3ccc4[nH]nc(-c5cc6cccnc6[nH]5)c4n3)c2)C1 [Compound 278, 5-(5-((3,3-Difluoropyrrolidin-1-yl)methyl)pyridin-3-yl)-3-(1H-pyrrolo[2,3-b]pyridin-2-yl)-1H-pyrazolo[4,3-b]pyridine] | 100 nM | 134% | 107 nM | –
9 | Nc1cncc(-c2ccc3[nH]nc(-c4cc5c(-c6ccncc6)ccnc5[nH]4)c3n2)c1 [Compound 115, 5-(3-(4-(Pyridin-4-yl)-1H-pyrrolo[2,3-b]pyridin-2-yl)-1H-pyrazolo[4,3-b]pyridin-5-yl)pyridin-3-amine] | – | 27% | > 10000 nM | 22.2%
10 | Cc1ccncc1-c1ccc2[nH]nc(-c3cc4c(N5CCCCC5)ccnc4[nH]3)c2n1 [Compound 173, 5-(4-Methylpyridin-3-yl)-3-(4-(piperidin-1-yl)-1H-pyrrolo[2,3-b]pyridin-2-yl)-1H-pyrazolo[4,3-b]pyridine] | 900 nM | 101% | 967 nM | –
11 | c1cc(-c2ccnc3[nH]c(-c4n[nH]c5ccc(-c6cncc(CN7CCCCC7)c6)nc45)cc23)ccn1 [Compound 127, 5-(5-(Piperidin-1-ylmethyl)pyridin-3-yl)-3-(4-(pyridin-4-yl)-1H-pyrrolo[2,3-b]pyridin-2-yl)-1H-pyrazolo[4,3-b]pyridine] | 2700 nM | 55% | > 10000 nM | 30.2%
12 | CN1CCN(c2ccnc3[nH]c(-c4n[nH]c5ccc(-c6cncc(NC(=O)CC(C)(C)C)c6)nc45)cc23)CC1 [Compound 240, 3,3-Dimethyl-N-(5-(3-(4-(4-methylpiperazin-1-yl)-1H-pyrrolo[2,3-b]pyridin-2-yl)-1H-pyrazolo[4,3-b]pyridin-5-yl)pyridin-3-yl)butanamide] | – | 30% | > 10000 nM | 43.5%
13 | O=C(CC1CCNCC1)Nc1cncc(-c2ccc3[nH]nc(-c4cc5c(-c6ccoc6)ccnc5[nH]4)c3n2)c1 [Compound 689, N-(5-(3-(4-(Furan-3-yl)-1H-pyrrolo[2,3-b]pyridin-2-yl)-1H-pyrazolo[4,3-b]pyridin-5-yl)pyridin-3-yl)-2-(piperidin-4-yl)acetamide] | 10 nM | 102% | 3340 nM | –
